In patent US11285219B2, “Peptide-oligourea hybrid compounds” (UREKA SARL, priority 2019, dated 2022):
Read-outs that look alike come from different tables or passages of the source. Numbered stars: 1 amine (or outer) side, 2 acyl side, 3 side chain; on linkers, the order of the positions; unused ones are H or OH. Bridge positions count the residues as written; N and C are the ends. Peptide text beside a SMILES is read from it. I, II: the chains in the order shown. X2 = C[C@@H](CNC(=O)N[C@@H](C)CNC(=O)N[C@@H](C)CNC(=O)N[C@@H](C)CNC(=O)[*:2])NC(=O)NC[C@H](CCC(=O)O)NC(=O)NC[C@H](Cc1ccc(O)cc1)N[*:1]; X1 = C[C@@H](CNC(=O)N[C@@H](C)CNC(=O)[*:2])NC(=O)NC[C@H](C)N[*:1]

Experiments:
normal mice (C57BL/6J) [1] = assay: Blood glucose experiment in healthy mice; assay type: in vivo, mouse; set-up: key to In vivo activity (indicator): + = active; +++: + + + = more active; settings: for In vivo activity (indicator): blood glucose, mice, i.v.; for effect on blood glucose concentration / time the decrease of blood glucose is preserved after dosing: fed normal mice, 5 μg/mouse i.v.; for effect on blood glucose concentration: monitored 6 h
Experimental: In the first study, we evaluated the effect of the analogues on the blood glucose concentration of normal mice (FIG. 4). The fed mice were treated with the analogues and their blood glucose concentration was monitored before and after dosing for 6 h. […] Indeed, a decrease of blood glucose concentration is observed after 30 min and the effect is preserved for 4 h after dosing.
Blood glucose experiment in healthy mice. After the acclimation period (at least 5 days), mice (male C57BL/6J mice (Charles River laboratories) (8 weeks old, 20-25 g)) were randomized into 10 groups (n=3/group) according to their body weight. They were acutely treated via i.v. route at 10 AM (5 μg/mouse). Blood glucose was measured before dosing and at 30 min, 1, 2, 4, 6 h after dosing in fed conditions.

normal mice (C57BL/6J) [2] = assay: Intra peritoneal glucose tolerance test (IPGTT) in fasted normal mice; assay type: in vivo, mouse; settings: for activity in IPGTT 5 min after dosing, 60 min after the glucose challenge: 65 min after dosing, compared to vehicle; for activity in IPGTT 5 min after dosing: glucose 2 g/kg i.p.
Experimental: In a second study, an IPGTT was performed 30 min after i.v. injections of 1, 14 and the vehicle (FIGS. 5B1 and 5B2). […] A further IPGTT study was done with a glucose challenge after 2 h of the dosing to investigate the prolong activity of hybrids 14, 22, and 23 (FIGS. 5C1 and 5C2).
IPGTT experiments in mice. After the acclimation period (at least 5 days), mice (male C57BL/6J mice (Charles River laboratories) (6 weeks old, 20-24 g)) were randomized into 6 groups (n=6/group) according to their body weight. The mice were fasted for 6 h prior being acutely treated via i.v. route (5 μg/mouse i.v. (200 μg/kg, 50 nmol/kg)) formulated at 20 μg/mL in PBS 1×. The IPGTTs were performed (glucose 2 g/kg i.p.) 5 min, 30 min, 2 h or 4 h after dosing and blood glucose was measured 30, 60, 90 and 120 min after the glucose challenge.

[3] = target: T1, mouse GLP-1 receptor endogenously expressed in βTC6 cells (Mus musculus, UniProt O35659); assay: cAMP production functional assay (HTRF), agonist activity at GLP-1R; assay type: cell-based; settings: for Potency (%), percentage of potency (cAMP production) compared to GLP-1-G^2: Table 2; for Potency (%), percentage of potency compare to GLP-1-G^2: Table 1; for EC50: read-out: EC50 (nM), GLP-1R potency
T1 construct: host or cells: βTC6 cells
T1 sequence (O35659 22-463): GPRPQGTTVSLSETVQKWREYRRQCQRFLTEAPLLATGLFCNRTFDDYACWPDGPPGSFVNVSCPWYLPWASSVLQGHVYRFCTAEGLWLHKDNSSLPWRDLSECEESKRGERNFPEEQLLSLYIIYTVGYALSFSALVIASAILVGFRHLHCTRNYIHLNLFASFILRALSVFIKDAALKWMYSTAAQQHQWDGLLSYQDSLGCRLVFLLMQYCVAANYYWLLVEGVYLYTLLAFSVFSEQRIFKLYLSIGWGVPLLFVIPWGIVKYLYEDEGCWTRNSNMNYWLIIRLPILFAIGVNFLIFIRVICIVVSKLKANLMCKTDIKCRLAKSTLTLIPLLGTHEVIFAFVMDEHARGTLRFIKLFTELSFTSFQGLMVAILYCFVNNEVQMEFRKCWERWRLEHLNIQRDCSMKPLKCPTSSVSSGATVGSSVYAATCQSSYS
Experimental: The agonistic activity of these hybrids were obtained by functional assays using cells expressing the […] and by measuring the receptor-mediated cAMP produced (see supporting information).
In vitro pharmacology (EC50). […] Following incubation, the cells were lysed and the fluorescence acceptor (D2-labeled cAMP) and fluorescence donor (anti-cAMP antibody labeled with europium cryptate) were added.

NEP 24.11 = NEP 24.11 (Homo sapiens, UniProt P08473); assay: in vitro; settings: pH 8
Experimental: Enzymatic and mouse plasma degradation studies.
Enzymatic degradation (NEP 24.11). Stock solutions of the oligomers were prepared at a concentration of 400 μM in a solution of 50 mM HEPES buffer, 50 mM NaCl, 0.05% Tween-80, pH 8.0. Stock solution of NEP 24.11 was prepared at a concentration of 100 μg/mL in water. Stability of oligomers to NEP 24.11 was assessed by conducting protease reaction in a 96-well plates at 20° C. […] Each compound was also incubated in the absence of the enzyme (12 μL of HEPES buffer and 38 μL of oligomer). At the indicated time (1, 2, 4, 6 and 22 hours) an aliquot of 10 μL was removed from each experimental reaction and pipetting into 100 μL of 1% TFA solution to quench the reaction, (t=0 min was determined using the reaction without enzyme). A portion of the quenched reaction solution was analyzed by HPLC. The time course of peptide degradation was determined by integrating the area of each peak in a series of HPLC traces.

[4] = pH 7.4
Experimental: Mouse plasma stability. […] The oligomer was then diluted 1/50 with a solution of plasma/PBS pH 7.4 (1:1) to afford a final concentration of 5 μM and incubated at 37° C. (4 μL of the stock solution was diluted with 196 μL of plasma/PBS, pH 7.4, 1:1) Each compound was also incubated in the absence of plasma (196 μL of H2O/PBS, pH 7.4, 1:1)). At the indicated time (20 min and 60 min) an aliquot of 70 μL was removed from each experimental reaction and pipetting into 175 μL of acetonitrile at 0° C. to quench the reaction, (t=0 min was determined using the reaction without plasma). The samples were frozen before analysis. The frozen sample were defrost, stirred with a vortex 5 min and finally centrifuged 5 min at 16° C. The supernatant was analyzed by LC-MS. The time course of oligomer degradation was determined by integrating the area of the peak in the extracted ion chromatogram.

[5] = receptor-mediated cAMP production, βTC6 cells

Chain of NEP 24.11 (P08473 whole entry): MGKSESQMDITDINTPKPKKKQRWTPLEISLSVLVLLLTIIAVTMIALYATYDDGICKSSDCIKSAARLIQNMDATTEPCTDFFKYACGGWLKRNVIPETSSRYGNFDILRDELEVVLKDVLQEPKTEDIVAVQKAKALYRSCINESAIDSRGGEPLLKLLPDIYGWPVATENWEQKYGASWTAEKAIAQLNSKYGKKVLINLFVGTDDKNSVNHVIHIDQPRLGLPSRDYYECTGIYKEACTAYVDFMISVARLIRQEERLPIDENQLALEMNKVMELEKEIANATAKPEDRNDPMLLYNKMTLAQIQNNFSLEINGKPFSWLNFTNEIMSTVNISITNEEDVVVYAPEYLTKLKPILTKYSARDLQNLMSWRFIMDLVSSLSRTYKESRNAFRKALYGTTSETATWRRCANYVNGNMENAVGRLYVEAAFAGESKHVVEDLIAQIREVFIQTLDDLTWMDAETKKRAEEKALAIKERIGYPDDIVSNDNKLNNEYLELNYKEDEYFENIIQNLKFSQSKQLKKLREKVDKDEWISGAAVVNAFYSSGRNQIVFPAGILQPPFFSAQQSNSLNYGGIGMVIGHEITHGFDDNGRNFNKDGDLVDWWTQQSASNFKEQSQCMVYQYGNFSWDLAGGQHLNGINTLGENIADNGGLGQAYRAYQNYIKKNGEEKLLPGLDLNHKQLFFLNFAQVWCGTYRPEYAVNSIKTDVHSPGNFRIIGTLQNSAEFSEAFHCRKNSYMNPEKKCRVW

| Compound | In vivo activity (indicator) (normal mice (C57BL/6J) [1]) | effect on blood glucose concentration (normal mice (C57BL/6J) [1]) | activity in IPGTT 5 min after dosing, 60 min after the glucose challenge (normal mice (C57BL/6J) [2]) | IPGTT 2 h after dosing (normal mice (C57BL/6J) [2]; fasted mice, 200 μg/kg i.v.) | activity in IPGTT 30 min after dosing (normal mice (C57BL/6J) [2]; fasted mice, 200 μg/kg i.v.) | activity in IPGTT 5 min after dosing (normal mice (C57BL/6J) [2]; fasted mice, 200 μg/kg i.v.) | Potency (%), percentage of potency (cAMP production) compared to GLP-1-G^2 [3] [%] | times less potent than GLP-1 ([3]; cAMP production) [times] | Potency (%), percentage of potency compare to GLP-1-G^2 ([3]; cAMP production) [%] | EC50 [3] [nM] | half-life (NEP 24.11) [h] | Mouse Plasma t1/2 [4] [h] | time the decrease of blood glucose is preserved after dosing (normal mice (C57BL/6J) [1]) [h] | IPGTT 4 h after dosing (normal mice (C57BL/6J) [2]; fasted mice, 200 μg/kg i.v.) | EC50 [3, 5] [nM] | half-life at […] (NEP 24.11) [h] |
| --- | --- | --- | --- | --- | --- | --- | --- | --- | --- | --- | --- | --- | --- | --- | --- | --- |
| CC[C@H](C)[C@H](NC(=O)[C@H](Cc1ccccc1)NC(=O)[C@H](CCC(=O)O)NC(=O)[C@H](CCCCN)NC(=O)[C@H](C)NC(=O)[C@H](C)NC(=O)[C@H](CCC(N)=O)NC(=O)CNC(=O)[C@H](CCC(=O)O)NC(=O)[C@H](CC(C)C)NC(=O)[C@H](Cc1ccc(O)cc1)NC(=O)[C@H](CO)NC(=O)[C@H](CO)NC(=O)[C@@H](NC(=O)[C@H](CC(=O)O)NC(=O)[C@H](CO)NC(=O)[C@@H](NC(=O)[C@H](Cc1ccccc1)NC(=O)[C@@H](NC(=O)CNC(=O)[C@H](CCC(=O)O)NC(=O)CNC(=O)[C@@H](N)Cc1c[nH]cn1)[C@@H](C)O)[C@@H](C)O)C(C)C)C(=O)N[C@@H](C)C(=O)N[C@@H](Cc1c[nH]c2ccccc12)C(=O)N[C@@H](CC(C)C)C(=O)N[C@H](C(=O)N[C@@H](CCCCN)C(=O)NCC(=O)N[C@@H](CCCNC(=N)N)C(=O)NCC(N)=O)C(C)C [Compound 1, GLP-1-G^2, reference compound] | + | decreased of blood glucose concentration after 30 min | no more significant effect | IPGTT curve similar to the vehicle | inactive | active | 100 | 2.5 | 100 | 0.24 | 3.6 | 0.267 |  |  |  |  |
| CC[C@H](C)[C@H](NC(=O)[C@H](Cc1ccccc1)NC(=O)NC[C@H](C)NC(=O)NC[C@H](C)NC(=O)NC[C@H](C)NC(=O)[C@H](CCC(N)=O)NC(=O)CNC(=O)[C@H](CCC(=O)O)NC(=O)[C@H](CC(C)C)NC(=O)[C@H](Cc1ccc(O)cc1)NC(=O)[C@H](CO)NC(=O)[C@H](CO)NC(=O)[C@@H](NC(=O)[C@H](CC(=O)O)NC(=O)[C@H](CO)NC(=O)[C@@H](NC(=O)[C@H](Cc1ccccc1)NC(=O)[C@@H](NC(=O)CNC(=O)[C@H](CCC(=O)O)NC(=O)CNC(=O)[C@@H](N)Cc1c[nH]cn1)[C@@H](C)O)[C@@H](C)O)C(C)C)C(=O)N[C@@H](C)C(=O)N[C@@H](Cc1c[nH]c2ccccc12)C(=O)N[C@@H](CC(C)C)C(=O)N[C@H](C(=O)N[C@@H](CCCCN)C(=O)NCC(=O)N[C@@H](CCCNC(=N)N)C(=O)NCC(N)=O)C(C)C [Compound 14, GG2[A^UA^UA^U]^18-21] (I: H-HGEGTFTSDVSSYLEGQ / II: FIAWLVKGRG-NH2; linker I:C-II:N via X1) | +++ | improved efficacy | still active | good control of the blood glucose concentration | full activity | active | 6 |  | 6 |  |  |  | 4 | still active after 6 h of the treatment | 4.1 | 4.9 |
| CC[C@H](C)[C@H](NC(=O)[C@H](Cc1ccccc1)NC(=O)NC[C@H](C)NC(=O)NC[C@H](C)NC(=O)NC[C@H](C)NC(=O)NC[C@H](C)NC(=O)NC[C@H](CCC(=O)O)NC(=O)NC[C@H](Cc1ccc(O)cc1)NC(=O)[C@H](Cc1ccc(O)cc1)NC(=O)[C@H](CO)NC(=O)[C@H](CO)NC(=O)[C@@H](NC(=O)[C@H](CC(=O)O)NC(=O)[C@H](CO)NC(=O)[C@@H](NC(=O)[C@H](Cc1ccccc1)NC(=O)[C@@H](NC(=O)CNC(=O)[C@H](CCC(=O)O)NC(=O)CNC(=O)[C@@H](N)Cc1c[nH]cn1)[C@@H](C)O)[C@@H](C)O)C(C)C)C(=O)N[C@@H](C)C(=O)N[C@@H](Cc1c[nH]c2ccccc12)C(=O)N[C@@H](CC(C)C)C(=O)N[C@H](C(=O)N[C@@H](CCCCN)C(=O)NCC(=O)N[C@@H](CCCNC(=N)N)C(=O)NCC(N)=O)C(C)C [Compound 23, GG2[Y^uE^uA^uA^uA^uA^u]^14-21] (I: H-HGEGTFTSDVSSY / II: FIAWLVKGRG-NH2; linker I:C-II:N via X2) | +++ | improved efficacy |  | good control of the blood glucose concentration |  |  | 7 |  | 7 |  |  |  | 4 |  | 3.4 | 6.1 |
